From US20220105188A1, “TARGET PROTEIN EED DEGRADATION-INDUCING DEGRADUCER, PREPARATION METHOD THEREOF, AND PHARMACEUTICAL COMPOSITION FOR PREVENTING OR TREATING DISEASES RELATED TO EED, EZH2, OR PRC2, COMPRISING SAME AS ACTIVE INGREDIENT” (KOREA RESEARCH INSTITUTE OF CHEMICAL TECHNOLOGY, priority 2019, published 2022)

Each molecule was assayed against T1, EED (Homo sapiens, UniProt O75530) (assay: EED Proteolytic Activity Evaluation 2 (western blot, Hela cells)). Settings: 1 nM, 10 nM, 100 nM and 1000 nM, 20 hours of treatment.
T1 construct: 2×10^5 Hela cells were injected into a 12-well plate; endogenous in cells; host or cells: HeLa
T1 sequence (O75530 whole entry): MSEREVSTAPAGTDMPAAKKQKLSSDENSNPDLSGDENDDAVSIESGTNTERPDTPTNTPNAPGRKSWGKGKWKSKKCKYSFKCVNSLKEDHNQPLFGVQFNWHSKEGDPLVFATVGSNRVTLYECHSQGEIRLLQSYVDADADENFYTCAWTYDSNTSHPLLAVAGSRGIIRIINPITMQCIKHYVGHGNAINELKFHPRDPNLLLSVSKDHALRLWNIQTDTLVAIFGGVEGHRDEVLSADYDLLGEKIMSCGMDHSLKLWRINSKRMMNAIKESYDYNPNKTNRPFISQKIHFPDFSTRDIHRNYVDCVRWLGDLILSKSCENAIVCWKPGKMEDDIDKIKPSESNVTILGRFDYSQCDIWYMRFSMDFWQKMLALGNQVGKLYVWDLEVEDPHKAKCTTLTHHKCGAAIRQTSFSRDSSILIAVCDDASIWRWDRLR
Type: cell-based
Procedure: [Experiment 2] EED Proteolytic Activity Evaluation 2
In order to evaluate the EED proteolytic activity of the compound according to the present invention, an experiment was conducted as follows.
Specifically, 2×10^5 Hela cells were injected into a 12-well plate, and after 8 hours of stabilization, each well was treated with the example compounds to have final concentrations of 1 nM, 10 nM, 100 nM, and 1000 nM. One well was treated with the volume of DMSO contained in the sample corresponding to the highest concentration in the experimental group. After 20 hours of treatment, the cells were collected and lysed using 80 μl of SDS Lysis buffer (50 mM Tris pH8.0, 1% SDS, 1 mM EDTA, 0.5 mM PMSF, and protease inhibitor cocktail) and then sonication (30 sec on/59 sec off), 5 cycles) to prepare a cell lysate, followed by protein quantification through BCA, followed by Western blot, and the results are shown in Table 3. (Maximum EED degradation rate: A: >50%, B: 25-50%, C: <25%)

Structure (SMILES)	EED degradation rate (Maximum EED degradation rate)
Cc1cccc(F)c1CN1C[C@H](c2ccc(N3CCN(CC4CCN(c5ccc6c(c5)C(=O)N(C5CCC(=O)NC5=O)C6=O)CC4)CC3)cc2)[C@@H](N(C)C)C1 (stereo partly drawn) [Example 131, 5-(4-((4-(4-((3S,4R)-4-(dimethylamino)-1-(2-fluoro-6-methylbenzyl)pyrrolidin-3-yl)phenyl)piperazin-1-yl)methyl)piperidin-1-yl)-2-(2,6-dioxopiperidin-3-yl)isoindolin-1,3-dione]	A (A: >50%)
Cc1cccc(F)c1CN1C[C@H](c2ccc(N3CCN(C(=O)CC4CCN(c5cccc6c5C(=O)N(C5CCC(=O)NC5=O)C6=O)CC4)CC3)cc2)[C@@H](N(C)C)C1 (stereo partly drawn) [Example 142, 4-(4-(2-(4-(4-((3S,4R)-4-(dimethylamino)-1-(2-fluoro-6-methylbenzyl)pyrrolidin-3-yl)phenyl)piperazin-1-yl)-2-oxoethyl)piperidin-1-yl)-2-(2,6-dioxopiperidin-3-yl)isoindolin-1,3-dione]	C (C: <25%)
Cc1cccc(F)c1CN1C[C@H](c2ccc(N3CCN(CCC4CCN(C(=O)COc5cccc6c5C(=O)N(C5CCC(=O)NC5=O)C6=O)CC4)CC3)cc2)[C@@H](N(C)C)C1 (stereo partly drawn) [Example 151, 4-(2-(4-(2-(4-(4-((3S,4R)-4-(dimethylamino)-1-(2-fluoro-6-methylbenzyl)pyrrolidin-3-yl)phenyl)piperazin-1-yl)ethyl)piperidin-1-yl)-2-oxoethoxy)-2-(2,6-dioxopiperidin-3-yl)isoindolin-1,3-dione]	A (A: >50%)
Cc1cccc(F)c1CN1C[C@H](c2ccc(N3CCN(CC4CCN(c5cccc6c5C(=O)N(C5CCC(=O)NC5=O)C6=O)CC4)CC3)cc2)[C@@H](N(C)C)C1 (stereo partly drawn) [Example 139, 4-(4-((4-(4-((3S,4R)-4-(dimethylamino)-1-(2-fluoro-6-methylbenzyl)pyrrolidin-3-yl)phenyl)piperazin-1-yl)methyl)piperidin-1-yl)-2-(2,6-dioxopiperidin-3-yl)isoindolin-1,3-dione]	C (C: <25%)
Cc1cccc(F)c1CN1C[C@H](c2ccc(N3CCN(C(=O)COCCOCCNC(=O)CNc4ccc5c(c4)C(=O)N(C4CCC(=O)NC4=O)C5=O)CC3)cc2)[C@@H](N(C)C)C1 (stereo partly drawn) [Example 121, N-(2-(2-(2-(4-(4-((3S,4R)-4-(dimethylamino)-1-(2-fluoro-6-methylbenzyl)pyrrolidin-3-yl)phenyl)piperazin-1-yl)-2-oxoethoxy)ethoxy)ethyl)-2-((2-(2,6-dioxopiperidin-3-yl)-1,3-dioxoisoindolin-5-yl)amino)acetamide]	A (A: >50%)
Cc1cccc(F)c1CN1C[C@H](c2ccc(N3CCN(C(=O)CC4CCN(C(=O)COc5cccc6c5C(=O)N(C5CCC(=O)NC5=O)C6=O)CC4)CC3)cc2)[C@@H](N(C)C)C1 (stereo partly drawn) [Example 143, 4-(2-(4-(2-(4-(4-((3S,4R)-4-(dimethylamino)-1-(2-fluoro-6-methylbenzyl)pyrrolidin-3-yl)phenyl)piperazin-1-yl)-2-oxoethyl)piperidin-1-yl)-2-oxoethoxy)-2-(2,6-dioxopiperidin-3-yl)isoindolin-1,3-dione]	A (A: >50%)
O=C(CNc1ccc2c(c1)C(=O)N(C1CCC(=O)NC1=O)C2=O)NCCOCCOCCN1CCC(n2cc(-c3cnc(NCc4ccco4)n4cnnc34)cn2)CC1 (stereo not drawn) [Example 129, 2-((2-(2,6-dioxopiperidin-3-yl)-1,3-dioxoisoindolin-5-yl)amino)-N-(2-(2-(2-(4-(4-(5-((furan-2-ylmethyl)amino)-[1,2,4]triazolo[4,3-c]pyrimidin-8-yl)-1H-pyrazol-1-yl)piperidin-1-yl)ethoxy)ethoxy)ethyl)acetamide]	C (C: <25%)
Cc1cccc(F)c1CN1C[C@H](c2ccc(N3CCN(C(=O)CCCCCCCNc4ccc5c(c4)C(=O)N(C4CCC(=O)NC4=O)C5=O)CC3)cc2)[C@@H](N(C)C)C1 (stereo partly drawn) [Example 126, 5-((8-(4-(4-((3S,4R)-4-(dimethylamino)-1-(2-fluoro-6-methylbenzyl)pyrrolidin-3-yl)phenyl)piperazin-1-yl)-8-oxooctyl)amino)-2-(2,6-dioxopiperidin-3-yl)isoindolin-1,3-dione]	B (B: 25-50%)
Cc1cccc(F)c1CN1C[C@H](c2ccc(N3CCN(C(=O)CCC4CCN(c5cccc6c5C(=O)N(C5CCC(=O)NC5=O)C6=O)CC4)CC3)cc2)[C@@H](N(C)C)C1 (stereo partly drawn) [Example 141, 4-(4-(3-(4-(4-((3S,4R)-4-(dimethylamino)-1-(2-fluoro-6-methylbenzyl)pyrrolidin-3-yl)phenyl)piperazin-1-yl)-3-oxopropyl)piperidin-1-yl)-2-(2,6-dioxopiperidin-3-yl)isoindolin-1,3-dione]	B (B: 25-50%)
Cc1cccc(F)c1CN1C[C@H](c2ccc(N3CCN(CCC4CCN(c5cccc6c5C(=O)N(C5CCC(=O)NC5=O)C6=O)CC4)CC3)cc2)[C@@H](N(C)C)C1 (stereo partly drawn) [Example 153, 4-(4-(2-(4-(4-((3S,4R)-4-(dimethylamino)-1-(2-fluoro-6-methylbenzyl)pyrrolidin-3-yl)phenyl)piperazin-1-yl)ethyl)piperidin-1-yl)-2-(2,6-dioxopiperidin-3-yl)isoindolin-1,3-dione]	A (A: >50%)
O=C1CCC(N2C(=O)c3ccc(NCC(=O)N4CCC(CN5CCC(n6cc(-c7cnc(NCc8ccco8)n8cnnc78)cn6)CC5)CC4)cc3C2=O)C(=O)N1 (stereo not drawn) [Example 127, 2-(2,6-dioxopiperidin-3-yl)-5-((2-(4-((4-(4-(5-((furan-2-ylmethyl)amino)-[1,2,4]triazolo[4,3-c]pyrimidin-8-yl)-1H-pyrazol-1-yl)piperidin-1-yl)methyl)piperidin-1-yl)-2-oxoethyl)amino)isoindolin-1,3-dione]	C (C: <25%)
Cc1cccc(F)c1CN1C[C@H](c2ccc(N3CCN(C(=O)CCC4CCN(c5ccc6c(c5)C(=O)N(C5CCC(=O)NC5=O)C6=O)CC4)CC3)cc2)[C@H](N(C)C)C1 (stereo partly drawn) [Example 133, 5-(4-(3-(4-(4-((3S,4S)-4-(dimethylamino)-1-(2-fluoro-6-methylbenzyl)pyrrolidin-3-yl)phenyl)piperazin-1-yl)-3-oxopropyl)piperidin-1-yl)-2-(2,6-dioxopiperidin-3-yl)isoindolin-1,3-dione]	A (A: >50%)
Cc1cccc(F)c1CN1C[C@H](c2ccc(N3CCN(C(=O)CCC4CCN(C(=O)CNc5cccc6c5C(=O)N(C5CCC(=O)NC5=O)C6=O)CC4)CC3)cc2)[C@@H](N(C)C)C1 (stereo partly drawn) [Example 149, 4-((2-(4-(3-(4-(4-((3S,4R)-4-(dimethylamino)-1-(2-fluoro-6-methylbenzyl)pyrrolidin-3-yl)phenyl)piperazin-1-yl)-3-oxopropyl)piperidin-1-yl)-2-oxoethyl)amino)-2-(2,6-dioxopiperidin-3-yl)isoindolin-1,3-dione]	B (B: 25-50%)
Cc1cccc(F)c1CN1C[C@H](c2ccc(N3CCN(C(=O)CCCCCNc4ccc5c(c4)C(=O)N(C4CCC(=O)NC4=O)C5=O)CC3)cc2)[C@@H](N(C)C)C1 (stereo partly drawn) [Example 138, 5-((6-(4-(4-((3S,4R)-4-(dimethylamino)-1-(2-fluoro-6-methylbenzyl)pyrrolidin-3-yl)phenyl)piperazin-1-yl)-6-oxohexyl)amino)-2-(2,6-dioxopiperidin-3-yl)isoindolin-1,3-dione]	B (B: 25-50%)
Cc1cccc(F)c1CN1C[C@H](c2ccc(N3CCN(C(=O)CC4CCN(C(=O)CNc5cccc6c5C(=O)N(C5CCC(=O)NC5=O)C6=O)CC4)CC3)cc2)[C@@H](N(C)C)C1 (stereo partly drawn) [Example 144, 4-((2-(4-(2-(4-(4-((3S,4R)-4-(dimethylamino)-1-(2-fluoro-6-methylbenzyl)pyrrolidin-3-yl)phenyl)piperazin-1-yl)-2-oxoethyl)piperidin-1-yl)-2-oxoethyl)amino)-2-(2,6-dioxopiperidin-3-yl)isoindolin-1,3-dione]	A (A: >50%)
Cc1cccc(F)c1CN1C[C@H](c2ccc(N3CCN(C(=O)CC4CCN(C(=O)COc5ccc6c(c5)C(=O)N(C5CCC(=O)NC5=O)C6=O)CC4)CC3)cc2)[C@@H](N(C)C)C1 (stereo partly drawn) [Example 145, 5-(2-(4-(2-(4-(4-((3S,4R)-4-(dimethylamino)-1-(2-fluoro-6-methylbenzyl)pyrrolidin-3-yl)phenyl)piperazin-1-yl)-2-oxoethyl)piperidin-1-yl)-2-oxoethoxy)-2-(2,6-dioxopiperidin-3-yl)isoindolin-1,3-dione]	B (B: 25-50%)
Cc1cccc(F)c1CN1C[C@H](c2ccc(N3CCN(C(=O)CCCCCCCNc4cccc5c4C(=O)N(C4CCC(=O)NC4=O)C5=O)CC3)cc2)[C@@H](N(C)C)C1 (stereo partly drawn) [Example 125, 4-((8-(4-(4-((3S,4R)-4-(dimethylamino)-1-(2-fluoro-6-methylbenzyl)pyrrolidin-3-yl)phenyl)piperazin-1-yl)-8-oxooctyl)amino)-2-(2,6-dioxopiperidin-3-yl)isoindolin-1,3-dione]	A (A: >50%)
Cc1cccc(F)c1CN1C[C@H](c2ccc(N3CCN(C(=O)CCCNc4ccc5c(c4)C(=O)N(C4CCC(=O)NC4=O)C5=O)CC3)cc2)[C@@H](N(C)C)C1 (stereo partly drawn) [Example 124, 5-((4-(4-(4-((3S,4R)-4-(dimethylamino)-1-(2-fluoro-6-methylbenzyl)pyrrolidin-3-yl)phenyl)piperazin-1-yl)-4-oxobutyl)amino)-2-(2,6-dioxopiperidin-3-yl)isoindolin-1,3-dione]	B (B: 25-50%)
